# Test results as given in ChEMBL document CHEMBL1149915, “Natural products as leads to potential drugs: an old process or the new hope for drug discovery?” (J Med Chem, 2008).
# How the values were obtained:
# [1] = target: Cyclin-dependent kinase 2 (Homo sapiens, UniProt P24941); experiment: Inhibition of Cdk2/cyclin A
# [2] = Inhibition of cyclin dependent kinase
# [3] = Inhibition of beta-arylsulfotransferase 4
# [4] = target: Cyclin-dependent kinase 1/cyclin B1 (Homo sapiens, UniProt P06493); experiment: Inhibition of Cdk1/cyclin B
# [5] = Inhibition of inositol 1,4,5-triphosphate 3-kinase
# Cyclin-dependent kinase 1/cyclin B1, sequence (P06493 whole entry): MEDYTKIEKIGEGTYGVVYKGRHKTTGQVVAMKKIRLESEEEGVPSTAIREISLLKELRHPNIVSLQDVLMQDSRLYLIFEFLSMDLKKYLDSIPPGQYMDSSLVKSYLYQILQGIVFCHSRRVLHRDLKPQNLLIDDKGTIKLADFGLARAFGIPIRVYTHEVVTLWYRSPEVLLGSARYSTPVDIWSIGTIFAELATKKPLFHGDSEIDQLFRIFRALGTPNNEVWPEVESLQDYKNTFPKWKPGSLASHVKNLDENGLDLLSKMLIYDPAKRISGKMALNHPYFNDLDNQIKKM
# Cyclin-dependent kinase 1/cyclin B1, sequence (P14635 whole entry, further chain): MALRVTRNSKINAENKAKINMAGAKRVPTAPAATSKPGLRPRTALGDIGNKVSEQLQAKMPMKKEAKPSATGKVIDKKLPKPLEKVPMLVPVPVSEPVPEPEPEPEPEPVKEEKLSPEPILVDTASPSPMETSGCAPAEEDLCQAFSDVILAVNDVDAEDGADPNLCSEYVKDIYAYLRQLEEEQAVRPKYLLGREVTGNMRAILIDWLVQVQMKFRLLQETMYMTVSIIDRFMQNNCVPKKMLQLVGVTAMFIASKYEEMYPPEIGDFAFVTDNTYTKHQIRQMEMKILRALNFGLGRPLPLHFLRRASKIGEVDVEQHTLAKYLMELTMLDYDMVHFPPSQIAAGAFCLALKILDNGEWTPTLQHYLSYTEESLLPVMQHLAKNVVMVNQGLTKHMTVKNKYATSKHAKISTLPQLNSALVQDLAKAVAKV
IC50 [2],SMILES,further results
,OCCn1cnc2c(NCc3ccccc3)nc(NCc3ccc(Br)cc3)nc21,IC50 [1]: 20 µM
0.004 µM,CC[C@H](CO)Nc1nc(Nc2cccc(Cl)c2)c2ncn(C(C)C)c2n1,
,Clc1nc(NCc2cccc3ccccc23)c2nc[nH]c2n1,Ki [3]: 0.096 µM
1000 µM,Cn1cnc2c(NCc3ccccc3)nc(NCCO)nc21 [OLOMOUCINE],
,O=[N+]([O-])c1ccc(CNc2nc(NCc3cccc(C(F)(F)F)c3)nc3[nH]cnc23)cc1,IC50 [4]: > 100 µM; IC50 [5]: 10.2 µM
0.004 µM,CC[C@H](CO)Nc1nc(Nc2cc(Cl)cc(C(=O)O)c2)c2ncn(C(C)C)c2n1,

SMILES,IC50 [2],further results
CC[C@H](CO)Nc1nc(NCc2ccccc2)c2ncn(C(C)C)c2n1 [SELICICLIB],0.45 µM,
